Target: T1, PTPbeta catalytic domain [SEQ ID NO: 7] (Homo sapiens, UniProt P23467)
T1 construct: made in house; host or cells: Escherichia coli BL21-RIL
Test: Inhibition of HPTPbeta (relative inhibitor potency, stated in words)
Format: biochemical
Conditions: qualitative comparison; no numerical values or assay method printed

T1 sequence (P23467 with tags, fused parts or gaps): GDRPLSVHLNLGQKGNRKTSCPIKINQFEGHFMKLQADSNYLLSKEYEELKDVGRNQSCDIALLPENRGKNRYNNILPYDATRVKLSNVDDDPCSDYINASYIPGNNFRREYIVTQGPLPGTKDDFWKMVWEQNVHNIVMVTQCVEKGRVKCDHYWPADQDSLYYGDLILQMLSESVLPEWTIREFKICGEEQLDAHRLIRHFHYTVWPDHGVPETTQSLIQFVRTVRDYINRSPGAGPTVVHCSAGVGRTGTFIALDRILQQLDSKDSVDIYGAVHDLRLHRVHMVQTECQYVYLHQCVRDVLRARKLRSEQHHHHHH

In the case of `CNC(=O)[C@H](Cc1ccc(NS(=O)(=O)O)cc1)NC(=O)C(Cc1ccc(O)cc1)NC(=O)OC(C)(C)C` (stereo in doubt) [Compound 2, {2-(4-Hydroxy-phenyl)-1-[1-methylcarbamoyl-2-(4-sulfoamino-phenyl)-ethylcarbamoyl]-ethyl}-carbamic acid tert-butyl ester], the “inhibitor potency relative to Compound 1” value is reported as “more potent inhibitor than Compound 1”.
